Laboratory results published in ChEMBL document CHEMBL4229381, “New cytokinin derivatives possess UVA and UVB photoprotective effect on human skin cells and prevent oxidative stress” (Eur J Med Chem, 2018).
Active and inactive are the calls of the source. No cut-off for these calls is given here.

How the values were obtained:
[1] = tested on: Nicotiana tabacum; assay: Growth promoting activity in tobacco callus assessed as callus weight at 10^-5 mol/L after 4 weeks relative to control; type: functional
[2] = Antioxidant activity assessed as trolox equivalent of AAPH-induced radical scavenging activity at 1 uM pretreated for 15 mins followed by […] challenge measured every 3 mins over 90 mins by ORAC-FL assay; type: functional
[3] = Cytotoxicity in human NHDF cells assessed as cell viability at 31.3 uM after 24 hrs by neutral red uptake assay relative to control; type: cell-based; conditions: read-out: Activity
[4] = Cytotoxicity in human NHDF cells assessed as cell viability at 15.6 uM after 24 hrs by neutral red uptake assay relative to control; type: cell-based; conditions: read-out: Activity
[5] = Cytotoxicity in human NHDF cells assessed as cell viability at 62.5 uM after 24 hrs by neutral red uptake assay relative to control; type: cell-based; conditions: read-out: Activity
[6] = Phototoxicity in human HaCaT cells assessed as cell viability at 62.5 uM preincubated for 60 mins followed by 7.5 J/cm2 UVA irradiation and measured after 24 hrs by neutral red uptake assay relative to control; type: cell-based; conditions: read-out: Activity
[7] = tested on: HaCaT; assay: Cytotoxicity in human HaCaT cells assessed as reduction in cell viability at 50 uM after 24 hrs by resazurin dye-based fluorescence assay relative to control
[8] = Phototoxicity in human NHDF cells assessed as cell viability at 15.6 uM preincubated for 60 mins followed by 5 J/cm2 UVA irradiation and measured after 24 hrs by neutral red uptake assay relative to control; type: cell-based; conditions: read-out: Activity
[9] = Cytotoxicity in human HaCaT cells assessed as cell viability at 7.8 uM after 24 hrs by neutral red uptake assay relative to control; type: cell-based; conditions: read-out: Activity
[10] = tested on: NHDF; assay: Cytoprotection against phototoxicity in human NHDF cells assessed as increase in cell viability at 31.3 uM preincubated for 60 mins followed by 150 mJ/cm2 UVB irradiation and measured after 24 hrs by neutral red uptake assay; type: functional, cell-based
[11] = Phototoxicity in human NHDF cells assessed as cell viability at 31.3 uM preincubated for 60 mins followed by 5 J/cm2 UVA irradiation and measured after 24 hrs by neutral red uptake assay relative to control; type: cell-based; conditions: read-out: Activity
[12] = tested on: HaCaT; assay: Cytoprotection against phototoxicity in human HaCaT cells assessed as increase in cell viability at 3.9 uM preincubated for 60 mins followed by 10 J/cm2 UVA irradiation and measured after 24 hrs by neutral red uptake assay; type: functional, cell-based
[13] = tested on: Triticum aestivum; assay: Anti-senescent activity in leaf of Triticum aestivum cv. Hereward seedlings by measuring chlorophyll retention at 10^-4 mol/L after 4 days relative to control; type: functional
[14] = Phototoxicity in human HaCaT cells assessed as cell viability at 125 uM preincubated for 60 mins followed by 7.5 J/cm2 UVA irradiation and measured after 24 hrs by neutral red uptake assay relative to control; type: cell-based; conditions: read-out: Activity
[15] = tested on: Amaranthus caudatus; assay: Growth promoting activity in Amaranthus caudatus var. atropurpurea seeds by measuring betacyanin at 10^-4 mol/L after 48 hrs relative to control; type: functional
[16] = Phototoxicity in human HaCaT cells assessed as cell viability at 7.8 uM preincubated for 60 mins followed by 7.5 J/cm2 UVA irradiation and measured after 24 hrs by neutral red uptake assay relative to control; type: cell-based; conditions: read-out: Activity
[17] = Phototoxicity in human HaCaT cells assessed as cell viability at 15.6 uM preincubated for 60 mins followed by 7.5 J/cm2 UVA irradiation and measured after 24 hrs by neutral red uptake assay relative to control; type: cell-based; conditions: read-out: Activity
[18] = Cytotoxicity in human NHDF cells assessed as cell viability at 125 uM after 24 hrs by neutral red uptake assay relative to control; type: cell-based; conditions: read-out: Activity
[19] = Cytotoxicity in human HaCaT cells assessed as cell viability at 15.6 uM after 24 hrs by neutral red uptake assay relative to control; type: cell-based; conditions: read-out: Activity
[20] = Phototoxicity in human NHDF cells assessed as cell viability at 62.5 uM preincubated for 60 mins followed by 5 J/cm2 UVA irradiation and measured after 24 hrs by neutral red uptake assay relative to control; type: cell-based; conditions: read-out: Activity
[21] = Phototoxicity in human NHDF cells assessed as cell viability at 125 uM preincubated for 60 mins followed by 5 J/cm2 UVA irradiation and measured after 24 hrs by neutral red uptake assay relative to control; type: cell-based; conditions: read-out: Activity
[22] = Phototoxicity in human NHDF cells assessed as cell viability at 3.9 uM preincubated for 60 mins followed by 5 J/cm2 UVA irradiation and measured after 24 hrs by neutral red uptake assay relative to control; type: cell-based; conditions: read-out: Activity
[23] = Cytotoxicity in human NHDF cells assessed as cell viability at 3.9 uM after 24 hrs by neutral red uptake assay relative to control; type: cell-based; conditions: read-out: Activity
[24] = Cytotoxicity in human HaCaT cells assessed as cell viability at 3.9 uM after 24 hrs by neutral red uptake assay relative to control; type: cell-based; conditions: read-out: Activity
[25] = Cytotoxicity in human HaCaT cells assessed as cell viability at 125 uM after 24 hrs by neutral red uptake assay relative to control; type: cell-based; conditions: read-out: Activity
[26] = Phototoxicity in human HaCaT cells assessed as cell viability at 31.3 uM preincubated for 60 mins followed by 7.5 J/cm2 UVA irradiation and measured after 24 hrs by neutral red uptake assay relative to control; type: cell-based; conditions: read-out: Activity
[27] = Phototoxicity in human NHDF cells assessed as cell viability at 7.8 uM preincubated for 60 mins followed by 5 J/cm2 UVA irradiation and measured after 24 hrs by neutral red uptake assay relative to control; type: cell-based; conditions: read-out: Activity
[28] = tested on: BJ; assay: Cytotoxicity in human BJ cells assessed as reduction in cell viability at 50 uM after 24 hrs by resazurin dye-based fluorescence assay relative to control
[29] = Cytotoxicity in human NHDF cells assessed as cell viability at 7.8 uM after 24 hrs by neutral red uptake assay relative to control; type: cell-based; conditions: read-out: Activity
[30] = Phototoxicity in human HaCaT cells assessed as cell viability at 3.9 uM preincubated for 60 mins followed by 7.5 J/cm2 UVA irradiation and measured after 24 hrs by neutral red uptake assay relative to control; type: cell-based; conditions: read-out: Activity
[31] = Cytotoxicity in human HaCaT cells assessed as cell viability at 31.3 uM after 24 hrs by neutral red uptake assay relative to control; type: cell-based; conditions: read-out: Activity
[32] = tested on: Amaranthus caudatus; assay: Growth promoting activity in Amaranthus caudatus var. atropurpurea seeds by measuring betacyanin at 10^-5 mol/L after 48 hrs relative to control; type: functional
[33] = tested on: NHDF; assay: Cytoprotection against phototoxicity in human NHDF cells assessed as increase in cell viability at 3.9 to 31.3 uM preincubated for 60 mins followed by 7.5 J/cm2 UVA irradiation and measured after 24 hrs by neutral red uptake assay; type: functional, cell-based
[34] = tested on: NHDF; assay: Cytoprotection against phototoxicity in human NHDF cells assessed as increase in cell viability at 3.9 to 31.3 uM preincubated for 60 mins followed by 150 mJ/cm2 UVB irradiation and measured after 24 hrs by neutral red uptake assay; type: functional, cell-based
[35] = tested on: HaCaT; assay: Cytoprotection against phototoxicity in human HaCaT cells assessed as increase in cell viability at 3.9 to 31.3 uM preincubated for 60 mins followed by 10 J/cm2 UVA irradiation and measured after 24 hrs by neutral red uptake assay; type: functional, cell-based

c1ccc(CNc2ncnc3[nH]cnc23)cc1 [6-BENZYLAMINOPURINE]
Activity [1]: 20%

c1nc(NCC2CCCO2)c2nc[nH]c2n1 (stereo unspecified)
Activity [2]: < 0.05 equiv | viability at 24 h, 31.3 µM [3]: 102% | viability at 24 h, 15.6 µM [4]: 101% | Activity [1]: 110% | viability at 24 h, 62.5 µM [5]: 102% | viability at 24 h, 62.5 µM [6]: 118% | Activity [7]: < 10% | viability at 24 h, 15.6 µM [8]: 100% | viability at 24 h, 7.8 µM [9]: 104% | Activity [10]: Active | viability at 24 h, 31.3 µM [11]: 101% | Activity [12]: Active | Activity [13]: 114% | viability at 24 h, 125 µM [14]: 119% | Activity [15]: 109% | viability at 24 h, 7.8 µM [16]: 103% | viability at 24 h, 15.6 µM [17]: 106% | viability at 24 h, 125 µM [18]: 101% | viability at 24 h, 15.6 µM [19]: 102% | viability at 24 h, 62.5 µM [20]: 100% | viability at 24 h, 125 µM [21]: 103% | viability at 24 h, 3.9 µM [22]: 99% | viability at 24 h, 3.9 µM [23]: 102% | viability at 24 h, 3.9 µM [24]: 102% | viability at 24 h, 125 µM [25]: 102% | viability at 24 h, 31.3 µM [26]: 113% | viability at 24 h, 7.8 µM [27]: 101% | Activity [28]: < 10% | viability at 24 h, 7.8 µM [29]: 103% | viability at 24 h, 3.9 µM [30]: 101% | viability at 24 h, 31.3 µM [31]: 104%

c1csc(CNc2[nH]cnc3ncnc2-3)c1
Activity [1]: 102% | Activity [13]: 60% | Activity [32]: 95%

Clc1nc(NCc2cccs2)c2ncn(C3CCCO3)c2n1 (stereo unspecified)
Activity [1]: 108% | Activity [13]: inactive | Activity [15]: 101%

c1csc(CCNc2ncnc3[nH]cnc23)c1
Activity [1]: 77% | Activity [13]: inactive | Activity [15]: 80%

O=C(/C=C/c1ccc(O)c(O)c1)O[C@H](Cc1ccc(O)c(O)c1)C(=O)O
Activity [2]: 9.14 equiv | Activity [12]: Active | Activity [33]: Active | Activity [34]: Active | Activity [35]: Active
